Activity data for four molecules are collected here from ChEMBL document CHEMBL2074010, “Transport function and hepatocellular localization of mrp6 in rat liver” (Mol Pharmacol, 2000).

For this data set, the target named is ATP-binding cassette sub-family C member 2 (Rattus norvegicus, UniProt Q63120). Kind of data set: TP_TRANSPORTER: uptake in membrane vesicles from Mrp2-expressing Sf9 cells. Type of data set: functional, cell membranes, Membrane vesicle.
Sequence of ATP-binding cassette sub-family C member 2 (Q63120 whole entry): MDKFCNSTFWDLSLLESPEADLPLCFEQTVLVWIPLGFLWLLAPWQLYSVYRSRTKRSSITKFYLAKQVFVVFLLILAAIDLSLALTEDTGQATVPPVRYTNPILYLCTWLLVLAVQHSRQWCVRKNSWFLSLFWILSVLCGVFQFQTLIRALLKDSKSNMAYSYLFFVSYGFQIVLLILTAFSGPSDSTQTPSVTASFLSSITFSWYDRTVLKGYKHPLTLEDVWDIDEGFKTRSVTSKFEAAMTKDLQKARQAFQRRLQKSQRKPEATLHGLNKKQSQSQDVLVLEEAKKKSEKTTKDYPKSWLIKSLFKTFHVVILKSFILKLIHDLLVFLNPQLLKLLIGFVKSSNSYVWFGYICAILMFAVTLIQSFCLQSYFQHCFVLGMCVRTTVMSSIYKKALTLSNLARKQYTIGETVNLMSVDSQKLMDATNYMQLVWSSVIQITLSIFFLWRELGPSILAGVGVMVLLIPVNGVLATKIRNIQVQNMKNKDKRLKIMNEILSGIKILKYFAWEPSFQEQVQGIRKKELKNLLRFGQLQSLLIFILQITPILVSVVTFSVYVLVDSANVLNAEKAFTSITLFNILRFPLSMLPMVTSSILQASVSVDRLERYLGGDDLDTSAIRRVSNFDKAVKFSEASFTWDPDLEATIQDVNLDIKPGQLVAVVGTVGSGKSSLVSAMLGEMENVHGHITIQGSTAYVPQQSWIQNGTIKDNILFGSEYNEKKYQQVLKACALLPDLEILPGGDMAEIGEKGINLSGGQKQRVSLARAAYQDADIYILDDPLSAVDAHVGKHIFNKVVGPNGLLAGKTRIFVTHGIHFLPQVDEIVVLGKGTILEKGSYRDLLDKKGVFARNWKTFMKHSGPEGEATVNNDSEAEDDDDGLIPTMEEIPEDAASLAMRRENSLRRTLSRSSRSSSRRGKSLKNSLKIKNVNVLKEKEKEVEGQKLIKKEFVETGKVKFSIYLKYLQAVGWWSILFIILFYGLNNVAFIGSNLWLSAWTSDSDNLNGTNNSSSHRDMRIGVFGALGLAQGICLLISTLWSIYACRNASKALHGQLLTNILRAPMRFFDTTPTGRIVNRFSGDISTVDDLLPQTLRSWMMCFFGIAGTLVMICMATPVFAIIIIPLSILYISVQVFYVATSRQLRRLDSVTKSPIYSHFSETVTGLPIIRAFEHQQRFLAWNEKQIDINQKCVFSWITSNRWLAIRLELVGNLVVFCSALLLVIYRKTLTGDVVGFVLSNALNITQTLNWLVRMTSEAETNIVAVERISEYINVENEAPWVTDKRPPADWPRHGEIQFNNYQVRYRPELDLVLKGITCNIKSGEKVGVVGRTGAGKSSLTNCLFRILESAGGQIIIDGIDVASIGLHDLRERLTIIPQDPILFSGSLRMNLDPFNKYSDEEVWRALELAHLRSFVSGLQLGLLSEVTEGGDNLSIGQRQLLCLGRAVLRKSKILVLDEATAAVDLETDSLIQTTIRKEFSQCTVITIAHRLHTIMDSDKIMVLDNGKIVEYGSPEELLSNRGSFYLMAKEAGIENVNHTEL

Consider `N[C@@H](CCC(=O)N[C@H](CSc1ccc([N+](=O)[O-])cc1[N+](=O)[O-])C(=O)NCC(=O)O)C(=O)O`, for which the Activity result was “is not a substrate [-]”.
On to `CC[C@H](C)[C@H](NC(=O)[C@H](CC(=O)O)NC(=O)[C@H](CC(C)C)NC(=O)[C@H](Cc1cnc[nH]1)NC(=O)[C@@H]1CSSC[C@H](N)C(=O)N[C@@H](CO)C(=O)N[C@H]2CSSC[C@H](NC(=O)[C@H](CCC(=O)O)NC(=O)[C@H](CCCCN)NC(=O)[C@H](CC(=O)O)NC(=O)[C@H](CCSC)NC(=O)[C@H](CC(C)C)NC(=O)[C@H](CO)NC(=O)[C@H](CO)NC2=O)C(=O)N[C@@H](C(C)C)C(=O)N[C@@H](Cc2ccc(O)cc2)C(=O)N[C@@H](Cc2ccccc2)C(=O)N1)C(=O)N[C@H](C(=O)N[C@@H](Cc1c[nH]c2ccccc12)C(=O)O)[C@@H](C)CC` [ENDOTHELIN], for which the Activity entry is “substrate [+]”.
On to `C[C@]12CC[C@@H]3c4ccc(O)cc4CC[C@H]3[C@@H]1CC[C@@H]2O[C@@H]1O[C@H](C(=O)O)[C@@H](O)[C@H](O)[C@H]1O` [ESTRADIOL 17B GLUCURONIDE], for which the Activity entry was “is not a substrate [-]”.
For the molecule `CCCCC/C=C\C\C=C/C=C/C=C/[C@@H](SC[C@@H](NC(=O)CC[C@H](N)C(=O)O)C(=O)NCC(=O)O)[C@@H](O)CCCC(=O)O` [LEUKOTRIEN C4], the Activity entry was “is not a substrate [-]”.
